Reference: patent US20110112155A1, “METHODS FOR TREATING CANCER IN PATIENTS HAVING BREAST CANCER RESISTANCE PROTEIN OVEREXPRESSION” (Bristol-Myers Squibb Company, priority 2008, published 2011)
Like-named read-outs stand apart in the source and are kept apart here.

Assays:
[1] = test system: BCRP overexpressing HEK293/BCRP cell line; assay: Cell growth assay in BCRP overexpressing HEK293 cells; format: cell-based
Method: (§1) Cancer cell lines overexpressing TUBB3 were evaluated in vivo in mice for sensitivity to ixabepilone, docetaxel and vinorelbine. These include DU4475 and PAT21 breast, as well as H1155 and LX-1 lung cancer lines. BCRP overexpressing HEK-293 cell line was studied in vitro for sensitivity to ixabepilone, paclitaxel and mitoxantrone.
(§2) Compounds and reagents. Ixabepilone, docetaxel and mitoxantrone were solubilized in 100% DMSO at 10 mg/ml for in vitro studies.
(§3) Cell culture: HEK and HEK/BCRP cells were maintained in RPMI-1640 (Gibco) supplemented with 10% heat-inactivated fetal bovine serum and 25 mM HEPES at 37° C./5% CO2.
(§4) Cell growth assays. Cell growth assays were conducted in 6-well culture plates. Cells were plated at a density of 4×10^4 cells/well overnight. Compounds were then added (total DMSO content not exceeding 0.1%). Cell growth was determined by the direct counting of cell number, following trypsinization, using a Coulter Channelyzer.

BCRP = assay: as above; format: cell-based; conditions: human, HEK293 cells overexpressing BCRP (HEK293/BCRP); HEK293/BCRP cells, cell growth by cell counting
Method: as §1, §2, §3, §4

[2] = test system: BCRP overexpressing cells; assay: Detection of BCRP overexpressing cells by Hoescht 33342 dye and flow cytometry; format: cell-based; conditions: flow cytometry, FIG. 7
Description: Determination of BCRP Expression by Flow Cytometry.
Cells were acquired using CellQuest Pro on a FACSCalibur (BD) and analyzed using FlowJo software.

[3] = test system: Pat-21 breast tumor xenograft overexpressing TUBB3; assay: In vivo efficacy in TUBB3 overexpressing PAT21 breast tumor xenograft; parameters: species or system human; conditions: Pat-21 xenograft in nude mice, at maximum tolerated dose; activity = LCK>=1
Method: as §1
(§5) In vivo efficacy of ixabepilone was evaluated in TUBB3 overexpressing human breast (DU4475 and PAT21) and lung (H1155 and LX-1) tumor xenograft models • Tumor response was determined by measurement of tumors by caliper twice a week • Tumor weights were estimated using the formula
(§6) Tumor weight=(length×width2)/2 • Tumor response endpoint was expressed in terms of log cell kill (LCK) expressed as
(§7) LCK=(T−C)÷(3.32×TVDT) • T−C, the difference in the time (days) required for the treated tumors (T) to reach a predetermined target size compared with those of the control group (C)
(§8) Tumor volume doubling time=TVDT: Median time (days) for control tumors to reach target size−Median time (days) for control tumors to reach half the target size • Activity was defined as achievement of LCK≧1 • MTD—the dose level immediately above which excessive toxicity (i.e., more then one death) occurred • Statistical evaluations were performed using Gehan's generalized Wilcoxon test

[4] = test system: LX-1 lung tumor xenograft overexpressing TUBB3; assay: In vivo efficacy in TUBB3 overexpressing LX-1 lung tumor xenograft; parameters: species or system human; conditions: LX-1 xenograft in nude mice, at maximum tolerated dose; activity = LCK>=1
Method: as §1, §5, §6, §7, §8

[5] = test system: 4 xenografts overexpressing TUBB3 (DU4475, PAT21, H1155, LX-1); assay: In vivo efficacy across the 4 human tumor xenografts overexpressing TUBB3; conditions: range across 4 TUBB3 overexpressing xenografts in nude mice, at MTD
Method: as §1, §5, §6, §7, §8

[6] = test system: DU4475 breast tumor xenograft overexpressing TUBB3; assay: In vivo efficacy in TUBB3 overexpressing DU4475 breast tumor xenograft; parameters: species or system human; conditions: DU4475 xenograft in nude mice, at maximum tolerated dose; activity = LCK>=1
Method: as §1, §5, §6, §7, §8

[7] = test system: H1155 lung tumor xenograft overexpressing TUBB3; assay: In vivo efficacy in TUBB3 overexpressing H1155 lung tumor xenograft; parameters: species or system human; conditions: H1155 xenograft in nude mice, at maximum tolerated dose; activity = LCK>=1
Method: as §1, §5, §6, §7, §8

[8] = test system: paclitaxel-sensitive (A2780, HCT116, LS174T) and paclitaxel-resistant (HCT116/VM46, Pat-7, A2780Tax, Pat-21) human tumor models; assay: Preclinical pharmacology studies of antitumor activity in human tumor models; format: in vivo
[9] = test system: human lung carcinoma cell line, H441; assay: BCRP-overexpression dependent resistance in H441 cells; format: cell-based; conditions: FIG. 8
[10] = HEK293/BCRP in comparison with the vector-transfected control line

Row | Compound | resistance factor [1, 10] [fold] | IC50 (BCRP) [nM] | Antitumor Efficacy (LCK) [3] [LCK] | Antitumor Efficacy (LCK) [4] [LCK] | antitumor efficacy, range over the 4 xenografts [5] | Antitumor Efficacy (LCK) [6] [LCK] | Antitumor Efficacy (LCK) [7] [LCK] | other results
1 | O=C1c2c(O)ccc(O)c2C(=O)c2c(NCCNCCO)ccc(NCCNCCO)c21 [mitoxantrone] | 4.1 | 26.4 | – | – | – | – | – | –
2 | COc1ccc2c3c([nH]c2c1)[C@H](C=C(C)C)N1C(=O)[C@@H]2CCCN2C(=O)[C@@H]1C3 [fumitremorgin C] | – | – | – | – | – | – | – | reversal of BCRP-mediated resistance to paclitaxel and mitoxantrone ([1]; HEK293/BCRP cells): reversed; effect on BCRP overexpressing cells detected with Hoescht 33342 dye [2]: abolition of BCRP overexpressing cells
3 | CC(=O)O[C@H]1C(=O)[C@@]2(C)[C@H]([C@H](OC(=O)c3ccccc3)[C@]3(O)C[C@H](OC(=O)[C@H](O)[C@@H](NC(=O)c4ccccc4)c4ccccc4)C(C)=C1C3(C)C)[C@]1(OC(C)=O)CO[C@@H]1C[C@@H]2O [paclitaxel] | 9.8 | 8.7 | – | – | – | – | – | –
4 | CCC1=C[C@@H]2CN(C1)Cc1c([nH]c3ccccc13)[C@@](C(=O)OC)(c1cc3c(cc1OC)N(C)[C@H]1[C@@](O)(C(=O)OC)[C@H](OC(C)=O)[C@]4(CC)C=CCN5CC[C@]31[C@@H]54)C2 [Vinorelbine, vinorelbine] | – | – | 0.3 | 0.1 | 0.1-0.3 LCK | 0.2 | 0.1 | –
5 | C/C(=C\c1csc(C)n1)[C@@H]1C[C@@H]2O[C@]2(C)CCC[C@H](C)[C@H](O)[C@@H](C)C(=O)C(C)(C)[C@@H](O)CC(=O)N1 [Ixabepilone, (1S,3S,7S,10R,11S,12S,16R)-7,11-dihydroxy-8,8,10,12,16-pentamethyl-3-[(1E)-1-methyl-2-(2-methyl-4-thiazolyl)ethenyl]-17-oxa-4-azabicyclo[14.1.0]heptadecane-5,9-dione] | – | 4.1 | 1.6 | 2.6 | – | 2.6 | 4.2 | oral efficacy ([8]; oral administration, comparable to parenteral administration): orally efficacious; antitumor activity ([8]; paclitaxel-sensitive and paclitaxel-resistant human colon, ovarian and breast tumor models): very impressive and broad spectrum of antitumor activity; resistance factor [1]: 1.9 fold; ability to overcome BCRP-overexpression dependent resistance to taxanes [9]: increased ability
6 | CC(=O)O[C@@]12CO[C@@H]1C[C@H](O)[C@@]1(C)C(=O)[C@H](O)C3=C(C)[C@@H](OC(=O)[C@H](O)[C@@H](NC(=O)OC(C)(C)C)c4ccccc4)C[C@@](O)([C@@H](OC(=O)c4ccccc4)[C@H]21)C3(C)C [Docetaxel, docetaxel] | – | – | 0.3 | 0.5 | 0.2-0.9 LCK | 0.9 | 0.2 | –
